This is an account of results in ChEMBL document CHEMBL1158020, “Antitumor agents. 190. Absolute stereochemistry of the cytotoxic germacranolides, tomenphantins A and B, from Elephantopus tomentosus” (1999).

Converted amounts (≈) assume the structure as drawn.

The test system of the assay is KB. The experiment in a line: Cytotoxicity against human KB cells. The settings on record: read-out: ED50 (the source's name). It counts as functional.

Regarding `C=C(C)C(=O)O[C@H]1C/C(CO)=C/CC[C@@]2(C)O[C@H]2[C@H]2OC(=O)C(=C)[C@@H]21` [TOMENPHANTIN A], the EC50 was determined as 3 µg/mL (≈ 8.61 µM).

On to `C=C(C)C(=O)O[C@H]1C/C(C=O)=C/CC[C@@]2(C)O[C@H]2[C@H]2OC(=O)C(=C)[C@@H]21` [TOMENPHANTIN B], for which the EC50 came to 2.7 µg/mL (≈ 7.79 µM).
